# Data from the supplement of paper PMC10307832.
# Tests used:
# Assay in all cases: relative viability (nuclei count vs DMSO), 5 days (fraction); higher = more cells survive
# [1] = compound: C#Cc1cccc(Nc2ncnc3cc(OC)c(OCCCCCCC(=O)NO)cc23)c1 [CUDC-101] + Nc1nc2[nH]cc(CCc3ccc(C(=O)N[C@@H](CCC(=O)O)C(=O)O)cc3)c2c(=O)[nH]1 [Pemetrexed] (partner 0.2 µM)
# Summary of the method: (§1)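 Relative viability equals treated-well nuclei counts divided by vehicle-well nuclei counts. Counts came from 4× images of lung cancer cell lines grown in 1536-well plates for 5 days after pin-tool dosing on the day after seeding. Dosing used one drug alone or a fixed anchor-drug dose plus five library-drug doses (not always all listed) in √10 steps, and values are medians of duplicate plates.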
# [2] = compound: C1=CC=C2C(=C1)N=C(S2)C(C#N)C3=NC(=NC=C3)NCCC4=CN=CC=C4 + Cc1cc(Nc2cc(N3CCN(C)CC3)nc(Sc3ccc(NC(=O)C4CC4)cc3)n2)n[nH]1 [Tozasertib] (partner 0.1 µM)
# Summary of the method: as §1
# [3] = compound: COc1cc2/c(=N/c3ccc(Br)cc3F)nc[nH]c2cc1OCC1CCN(C)CC1 [Vandetanib] + CCNC(=O)c1noc(-c2cc(C(C)C)c(O)cc2O)c1-c1ccc(CN2CCOCC2)cc1 [Luminespib] (partner 0.01 µM)
# Summary of the method: as §1
# [4] = compound: COc1cc2/c(=N/c3ccc(Br)cc3F)nc[nH]c2cc1OCC1CCN(C)CC1 [Vandetanib] + Nc1nc2[nH]cc(CCc3ccc(C(=O)N[C@@H](CCC(=O)O)C(=O)O)cc3)c2c(=O)[nH]1 [Pemetrexed] (partner 0.2 µM)
# Summary of the method: as §1
Cell Line,relative viability ([1]; first compound 0.01 µM),relative viability ([1]; first compound 0.03162 µM),relative viability ([1]; first compound 0.1 µM),relative viability ([1]; first compound 0.3162 µM),relative viability ([1]; first compound 1 µM),relative viability ([2]; first compound 0.005 µM),relative viability ([2]; first compound 0.01581 µM),relative viability ([2]; first compound 0.05 µM),relative viability ([2]; first compound 0.1581 µM),relative viability ([2]; first compound 0.5 µM),relative viability ([3]; first compound 0.02 µM),relative viability ([3]; first compound 0.06325 µM),relative viability ([3]; first compound 0.2 µM),relative viability ([3]; first compound 0.6325 µM),relative viability ([3]; first compound 2 µM),relative viability ([4]; first compound 0.02 µM),relative viability ([4]; first compound 0.06325 µM),relative viability ([4]; first compound 0.2 µM),relative viability ([4]; first compound 0.6325 µM),relative viability ([4]; first compound 2 µM)
201T,0.281,0.387,0.368,0.356,0.29,0.788,0.964,0.941,0.929,0.837,1.03,1.05,1.01,0.99,0.974,0.345,0.34,0.328,0.338,0.306
A-427,0.954,0.971,0.982,0.821,0.763,0.203,0.181,0.222,0.227,0.203,0.892,0.822,0.927,1.08,0.926,0.907,1,1.06,0.986,0.927
ABC-1,–,–,–,–,–,0.202,0.196,0.169,0.152,0.184,0.673,0.616,0.401,1.2,0.594,–,–,–,–,–
BEN,0.812,0.727,0.78,0.703,0.769,0.261,0.49,0.457,0.638,0.435,0.448,0.333,0.469,0.297,0.351,0.725,0.67,0.635,0.714,0.516
CAL-12T,1.45,1.13,1.19,1.14,1.18,0.222,0.336,0.275,0.388,0.197,0.367,0.461,0.183,0.307,0.232,1.14,1.2,1.32,1.18,1.17
COR-L23,0.184,0.196,0.2,0.186,0.175,0.179,0.169,0.175,0.167,0.149,0.629,0.653,0.747,0.7,0.685,0.179,0.197,0.223,0.21,0.187
COR-L 105,1.04,0.967,1.1,1.12,0.931,0.324,0.338,0.315,0.339,0.351,0.643,0.694,0.275,0.854,0.604,1.17,1.13,1.09,1.07,0.843
ChaGo-K-1,0.259,0.246,0.259,0.256,0.256,–,0.209,0.223,0.251,0.255,0.633,0.593,0.616,0.59,0.507,0.257,0.271,0.259,0.255,0.263
EKVX,0.395,0.435,0.442,0.373,0.35,0.481,0.468,0.429,0.498,0.336,0.878,0.86,0.956,0.827,0.65,0.385,0.373,0.459,0.349,0.363
EMC-BAC-2,0.464,0.399,0.46,0.394,0.354,0.268,0.32,0.262,0.278,0.234,1.15,1.11,0.216,1.27,1.07,0.473,0.44,0.448,0.427,0.459
EPLC-272H,0.345,0.316,0.428,0.387,0.235,0.168,0.225,0.253,0.236,0.388,0.265,–,0.272,0.756,0.276,0.447,0.299,0.399,0.341,0.287
H3255,0.62,0.543,0.408,0.449,0.304,0.685,0.609,0.702,0.089,0.9,0.982,0.795,0.829,0.728,0.501,0.566,0.482,0.49,0.444,0.357
HARA,0.253,0.237,–,0.243,0.176,0.098,0.0872,0.114,0.0978,0.118,0.814,0.561,0.074,0.9,0.512,0.246,0.239,0.243,0.203,0.213
HCC-15,0.212,0.244,0.226,0.217,0.198,0.343,0.411,0.316,0.315,0.273,0.343,0.293,0.0608,0.298,0.227,0.229,0.226,0.235,0.238,0.225
HCC-44,0.629,0.657,0.71,0.645,0.693,0.949,–,0.883,0.927,0.548,1.01,0.988,1.13,1.2,1.01,0.606,0.699,0.684,0.657,0.635
HCC-78,0.876,0.942,0.921,0.912,0.862,0.423,0.503,0.472,0.552,0.261,–,–,–,–,–,0.88,0.889,0.893,0.873,0.901
HCC-366,0.163,0.157,0.137,0.177,0.201,0.102,0.087,0.075,0.0798,0.0706,–,–,–,–,–,0.128,0.149,0.155,0.17,0.176
